Where two headings read alike, the source gives them in different places. Where a SMILES comes first, the peptide text is derived from it. Bridges are numbered along the chain shown (N, C = ends). Where no end group is shown, it is not given here. [ ]: non-standard residue; d: D form. PEG 40 kDa = PEG (40 kDa) covalently attached to Cys; C18 acyl = 18 carbon fatty acyl group; Aib = CC(C)(N)C(=O)O
Key:
Type in all cases: cell-based
GIP receptor = biological target: T1, GIP receptor (Homo sapiens, UniProt P48546); assay: cAMP synthesis functional assay (firefly luciferase reporter in HEK293 cells), GIP receptor
T1 construct: expressed in transfected cells; host or cells: HEK293
T1 sequence (P48546 22-466): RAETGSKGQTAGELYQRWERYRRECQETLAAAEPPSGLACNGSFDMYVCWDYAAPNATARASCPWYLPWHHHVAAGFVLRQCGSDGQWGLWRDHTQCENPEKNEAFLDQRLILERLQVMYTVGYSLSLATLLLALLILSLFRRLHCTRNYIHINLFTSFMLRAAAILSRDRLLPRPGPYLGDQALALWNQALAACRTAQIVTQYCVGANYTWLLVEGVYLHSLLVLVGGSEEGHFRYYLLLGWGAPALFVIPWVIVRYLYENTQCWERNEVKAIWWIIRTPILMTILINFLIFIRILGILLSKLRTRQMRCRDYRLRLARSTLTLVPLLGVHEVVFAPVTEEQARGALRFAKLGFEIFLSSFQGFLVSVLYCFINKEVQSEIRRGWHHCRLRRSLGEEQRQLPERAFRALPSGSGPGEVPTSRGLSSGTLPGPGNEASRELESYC

GLP-1 receptor = biological target: T2, GLP-1 receptor (Homo sapiens, UniProt P43220); assay: cAMP synthesis functional assay (firefly luciferase reporter in HEK293 cells), GLP-1 receptor
T2 construct: expressed in transfected cells; host or cells: HEK293

glucagon receptor = biological target: T3, glucagon receptor (Homo sapiens, UniProt P47871); assay: cAMP synthesis functional assay (firefly luciferase reporter in HEK293 cells), glucagon receptor; conditions: for EC50: read-out: Glucagon Receptor EC50
T3 construct: expressed in transfected cells; host or cells: HEK293

[1] = system: glucagon receptor, GLP-1 receptor or GIP receptor; assay: Agonist profile across receptors assigned from the cAMP reporter assay data; conditions: assigned from the in vitro EC50 data of Tables 1-4
[2] = Table 1, relative to the native hormone of the indicated receptor
[3] = relative to the standard (Std.) EC50 of the same run
[4] = Table 4, relative to the native hormone

T3 sequence (P47871 26-477): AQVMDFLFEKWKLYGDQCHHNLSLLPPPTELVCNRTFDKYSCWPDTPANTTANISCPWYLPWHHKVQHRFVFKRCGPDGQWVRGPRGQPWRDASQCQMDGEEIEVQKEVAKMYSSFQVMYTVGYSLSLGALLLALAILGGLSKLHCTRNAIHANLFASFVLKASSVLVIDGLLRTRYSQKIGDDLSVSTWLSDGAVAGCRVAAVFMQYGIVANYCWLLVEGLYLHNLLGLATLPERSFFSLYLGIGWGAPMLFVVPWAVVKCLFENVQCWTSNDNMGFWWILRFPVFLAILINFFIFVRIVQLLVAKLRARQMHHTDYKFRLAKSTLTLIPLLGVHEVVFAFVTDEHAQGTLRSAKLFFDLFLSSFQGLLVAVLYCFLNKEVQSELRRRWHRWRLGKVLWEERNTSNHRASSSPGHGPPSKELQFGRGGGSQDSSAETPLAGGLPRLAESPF
T2 sequence (P43220 24-463, species assumed): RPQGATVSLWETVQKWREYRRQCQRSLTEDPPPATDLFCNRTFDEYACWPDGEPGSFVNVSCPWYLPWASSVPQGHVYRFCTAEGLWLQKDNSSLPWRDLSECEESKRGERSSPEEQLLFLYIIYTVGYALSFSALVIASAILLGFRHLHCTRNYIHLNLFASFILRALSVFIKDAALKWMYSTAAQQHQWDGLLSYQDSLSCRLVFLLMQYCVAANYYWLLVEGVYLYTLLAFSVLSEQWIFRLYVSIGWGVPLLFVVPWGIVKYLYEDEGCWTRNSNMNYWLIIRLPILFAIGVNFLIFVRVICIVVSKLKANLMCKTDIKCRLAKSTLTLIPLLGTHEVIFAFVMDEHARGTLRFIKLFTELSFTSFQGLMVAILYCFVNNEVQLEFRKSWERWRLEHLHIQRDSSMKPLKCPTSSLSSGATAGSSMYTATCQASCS

Row | Compound | GIP Receptor relative activity (GIP receptor; [2]) [%] | GLP-1 Receptor relative activity (GLP-1 receptor; [2]) [%] | Glucagon Receptor relative activity (glucagon receptor; [2]) [%] | receptor activity profile (glucagon / GLP-1 / GIP agonism) [1] | further results
1 | CC[C@H](C)[C@H](NC(=O)[C@H](CO)NC(=O)[C@H](Cc1ccc(O)cc1)NC(=O)[C@H](CC(=O)O)NC(=O)[C@H](CO)NC(=O)[C@@H](NC(=O)[C@H](Cc1ccccc1)NC(=O)[C@@H](NC(=O)CNC(=O)[C@H](CCC(N)=O)NC(=O)C(C)(C)NC(=O)[C@@H](N)Cc1ccc(O)cc1)[C@@H](C)O)[C@@H](C)CC)C(=O)N[C@@H](Cc1ccc(O)cc1)C(=O)N[C@@H](CC(C)C)C(=O)N[C@@H](CC(=O)O)C(=O)N[C@H]1CCC(=O)NCCCC[C@@H](C(=O)N[C@@H](CCC(=O)O)C(=O)N[C@@H](Cc2ccccc2)C(=O)N[C@H](C(=O)N[C@@H](CC(N)=O)C(=O)N[C@@H](Cc2c[nH]c3ccccc23)C(=O)N[C@@H](CC(C)C)C(=O)N[C@@H](CC(C)C)C(=O)N[C@@H](C)C(=O)NCC(=O)NCC(=O)N2CCC[C@H]2C(=O)N[C@@H](CO)C(=O)N[C@@H](CO)C(=O)NCC(=O)N[C@@H](C)C(=O)N2CCC[C@H]2C(=O)N2CCC[C@H]2C(=O)N2CCC[C@H]2C(=O)N[C@@H](CO)C(=O)N[C@@H](CS)C(N)=O)C(C)C)NC(=O)[C@H](C)NC(=O)[C@H](C)NC(=O)[C@H](CCC(N)=O)NC1=O [mt-176] | 40.00 | 0.23 | 26.24 | exemplary GIP/glucagon co-agonist peptides | 
2 | mt-248: sequence of mt-170 with an AIB at position 16 in lieu of the lactam (Y[Aib]QGTFTSDYSIYLD[Aib]QAAKEFVNWLLAGGPSSGAPPPSC(PEG 40 kDa)-NH2) |  |  |  | exhibited activities of glucagon/GLP-1/GIP triagonists | 
3 | mt-179: glucagon analog peptide, C-terminal amide; called GIP/glucagon co-agonist and triagonist (Y[Aib]QGTFISDYSIYLDEQAAKEFVC(PEG 40 kDa)WLLAG-NH2; lactam 16-20) | 3.74 | 7.50 | 2.92 | exemplary GLP-1/GIP/glucagon triagonist peptides | EC50 (GIP receptor; read-out: GIP Receptor EC50, Table 1): 0.473 nM; EC50 (GLP-1 receptor; read-out: GLP-1 Receptor EC50, Table 1): 0.26 nM; EC50 (glucagon receptor; Table 1): 1.27 nM
4 | CC[C@H](C)[C@H](NC(=O)[C@H](CO)NC(=O)[C@H](Cc1ccc(O)cc1)NC(=O)[C@H](CC(=O)O)NC(=O)[C@H](CO)NC(=O)[C@@H](NC(=O)[C@H](Cc1ccccc1)NC(=O)[C@@H](NC(=O)CNC(=O)[C@H](CCC(N)=O)NC(=O)C(C)(C)NC(=O)[C@@H](N)Cc1ccc(O)cc1)[C@@H](C)O)[C@@H](C)O)C(=O)N[C@@H](Cc1ccc(O)cc1)C(=O)N[C@@H](CC(C)C)C(=O)N[C@@H](CC(=O)O)C(=O)N[C@@H](CCC(=O)O)C(=O)N[C@@H](CCC(N)=O)C(=O)N[C@@H](C)C(=O)N[C@@H](C)C(=O)NC(C)(C)C(=O)N[C@@H](CCC(=O)O)C(=O)N[C@@H](Cc1ccccc1)C(=O)N[C@H](C(=O)N[C@@H](CC(N)=O)C(=O)N[C@@H](Cc1c[nH]c2ccccc12)C(=O)N[C@@H](CC(C)C)C(=O)N[C@@H](CC(C)C)C(=O)N[C@@H](C)C(=O)NCC(=O)NCC(=O)N1CCC[C@H]1C(=O)N[C@@H](CO)C(=O)N[C@@H](CO)C(=O)NCC(=O)N[C@@H](C)C(=O)N1CCC[C@H]1C(=O)N1CCC[C@H]1C(=O)N1CCC[C@H]1C(=O)N[C@@H](CO)C(=O)N[C@@H](CS)C(N)=O)C(C)C [mt-251] (H-Y[Aib]QGTFTSDYSIYLDEQAA[Aib]EFVNWLLAGGPSSGAPPPSC-NH2; N-terminus assumed) |  |  |  | exhibited activity of a GLP-1/GIP co-agonist | GIP Receptor relative activity (GIP receptor; Table 2): 57.58%; GLP-1 Receptor relative activity (GLP-1 receptor; Table 2): 140.00%; Glucagon Receptor relative activity (glucagon receptor; Table 2): 1.52%
5 | mt-175: glucagon analog peptide, C-terminal amide (Y[Aib]QGTFTSDYSIYLDEQAAKEFVC(PEG 40 kDa)WLLAGGPSSGAPPPS-NH2; lactam 16-20) |  |  |  | exemplary GLP-1/GIP/glucagon triagonist peptides | 
6 | mt-172: glucagon analog peptide, C-terminal amide (Y[Aib]QGTFTSDYSIYLDEQAAKEFVC(PEG 40 kDa)WLLAG-NH2; lactam 16-20) |  |  |  | exemplary GLP-1/GIP/glucagon triagonist peptides | 
7 | CCCCCCCCCCCCCC(=O)NCCCC[C@H](NC(=O)[C@H](CO)NC(=O)[C@@H]1CCCN1C(=O)[C@@H]1CCCN1C(=O)[C@@H]1CCCN1C(=O)[C@H](C)NC(=O)CNC(=O)[C@H](CO)NC(=O)[C@H](CO)NC(=O)[C@@H]1CCCN1C(=O)CNC(=O)CNC(=O)[C@H](C)NC(=O)[C@H](CC(C)C)NC(=O)[C@H](CC(C)C)NC(=O)[C@H](Cc1c[nH]c2ccccc12)NC(=O)[C@H](CC(N)=O)NC(=O)[C@@H](NC(=O)[C@H](Cc1ccccc1)NC(=O)[C@H](CCC(=O)O)NC(=O)C(C)(C)NC(=O)[C@H](C)NC(=O)[C@H](C)NC(=O)[C@H](CCC(N)=O)NC(=O)[C@H](CCCCN)NC(=O)[C@H](CC(=O)O)NC(=O)[C@H](CC(C)C)NC(=O)[C@H](Cc1ccc(O)cc1)NC(=O)[C@@H](NC(=O)[C@H](CO)NC(=O)[C@H](Cc1ccc(O)cc1)NC(=O)[C@H](CC(=O)O)NC(=O)[C@H](CO)NC(=O)[C@@H](NC(=O)[C@H](Cc1ccccc1)NC(=O)[C@@H](NC(=O)CNC(=O)[C@H](CCC(=O)O)NC(=O)C(C)(C)NC(=O)[C@@H](N)Cc1ccc(O)cc1)[C@@H](C)O)[C@@H](C)O)[C@@H](C)CC)C(C)C)C(=O)N[C@@H](CS)C(N)=O [mt-339] |  |  |  |  | GIP Receptor relative activity (GIP receptor; [3]): 230.00%; GLP-1 Receptor relative activity (GLP-1 receptor; [3]): 66.30%; Glucagon Receptor relative activity (glucagon receptor; [3]): 0.28%
8 | mt-310: acylated version of mt-274: C-terminal Lys with C18 fatty acyl group, 40 kDa PEG on Cys at position 24 (Y[Aib]EGTFTSDYSIYLDKQAA[Aib]EFVC(PEG 40 kDa)WLLAGGPSSGAPPPSK(C18 acyl)-NH2) |  |  |  | exhibited activity at the GIP, GLP-1, and glucagon receptors | 
9 | CC[C@H](C)[C@H](NC(=O)[C@H](Cc1ccccc1)NC(=O)[C@@H](NC(=O)CNC(=O)[C@H](CCC(N)=O)NC(=O)[C@H](C)NC(=O)[C@@H](N)Cc1ccc(O)cc1)[C@@H](C)O)C(=O)N[C@@H](CO)C(=O)N[C@@H](CC(=O)O)C(=O)N[C@@H](Cc1ccc(O)cc1)C(=O)N[C@@H](CO)C(=O)N[C@@H](CCCCN)C(=O)N[C@@H](Cc1ccc(O)cc1)C(=O)N[C@@H](CC(C)C)C(=O)N[C@@H](CC(=O)O)C(=O)N[C@H]1CCC(=O)NCCCC[C@@H](C(=O)N[C@@H](CCC(=O)O)C(=O)N[C@@H](Cc2ccccc2)C(=O)N[C@H](C(=O)N[C@@H](CC(N)=O)C(=O)N[C@@H](Cc2c[nH]c3ccccc23)C(=O)N[C@@H](CC(C)C)C(=O)N[C@@H](CC(C)C)C(=O)N[C@@H](C)C(=O)NCC(=O)NCC(=O)N2CCC[C@H]2C(=O)N[C@@H](CO)C(=O)N[C@@H](CO)C(=O)NCC(=O)N[C@@H](C)C(=O)N2CCC[C@H]2C(=O)N2CCC[C@H]2C(=O)N2CCC[C@H]2C(=O)N[C@@H](CO)C(N)=O)C(C)C)NC(=O)[C@H](C)NC(=O)[C@H](C)NC(=O)[C@H](CCC(N)=O)NC1=O [mt-145] (H-YAQGTFISDYSKYLDEQAAKEFVNWLLAGGPSSGAPPPS-NH2; lactam 16-20; N-terminus assumed) | 4.79 | 0.33 | 47.06 |  | 
10 | CC[C@H](C)[C@H](NC(=O)[C@H](CO)NC(=O)[C@H](Cc1ccc(O)cc1)NC(=O)[C@H](CC(=O)O)NC(=O)[C@H](CO)NC(=O)[C@@H](NC(=O)[C@H](Cc1ccccc1)NC(=O)[C@@H](NC(=O)CNC(=O)[C@H](CCC(N)=O)NC(=O)[C@H](CO)NC(=O)[C@@H](N)Cc1ccc(O)cc1)[C@@H](C)O)[C@@H](C)O)C(=O)N[C@@H](Cc1ccc(O)cc1)C(=O)N[C@@H](CC(C)C)C(=O)N[C@@H](CC(=O)O)C(=O)N[C@H]1CCC(=O)NCCCC[C@@H](C(=O)N[C@@H](CC(=O)O)C(=O)N[C@@H](Cc2ccccc2)C(=O)N[C@H](C(=O)N[C@@H](CC(N)=O)C(=O)N[C@@H](Cc2c[nH]c3ccccc23)C(=O)N[C@@H](CC(C)C)C(=O)N[C@@H](CC(C)C)C(=O)N[C@@H](C)C(=O)N[C@@H](CCC(N)=O)C(N)=O)C(C)C)NC(=O)[C@H](CCC(N)=O)NC(=O)[C@H](Cc2c[nH]cn2)NC(=O)[C@H]([C@@H](C)CC)NC1=O [mt-110] (H-YSQGTFTSDYSIYLDEIHQKDFVNWLLAQ-NH2; lactam 16-20; N-terminus assumed) | 9.62 | 1.49 | 23.26 |  | 
11 | mt-376: acylated PEG-linked dimer, acylation at position 40 of each monomer (YXEGTFTSDYSIYLDKQAAXEFVNWLLAGGPSSGAPPPSKC; PEG-linked dimer, acylated at position 40; Mt-376; Homodimer; Xaa is Aib; 14 Carbon fatty acyl group covelently bound to Lysine; C-terminal amidation; Cys residue covalently attached to 20 kDa PEG which is in turn covalently attached to a Cys residue of a second peptide having the same structure) |  |  |  |  | GIP Receptor relative activity (GIP receptor; [4]): 62.63%; GLP-1 Receptor relative activity (GLP-1 receptor; [4]): 126.82%; Glucagon Receptor relative activity (glucagon receptor; [4]): 0.57%; EC50 (glucagon receptor; Table 4): 13.5 nM

Source: patent US9062124B2, “GIP-based mixed agonists for treatment of metabolic disorders and obesity” (priority 2008, dated 2015)
